# Key:
# DYRK2 = target: T1, DYRK2 (Homo sapiens, UniProt Q92630); settings: 1 μM; Run 1, Run 2
# T1 sequence (Q92630 1-601): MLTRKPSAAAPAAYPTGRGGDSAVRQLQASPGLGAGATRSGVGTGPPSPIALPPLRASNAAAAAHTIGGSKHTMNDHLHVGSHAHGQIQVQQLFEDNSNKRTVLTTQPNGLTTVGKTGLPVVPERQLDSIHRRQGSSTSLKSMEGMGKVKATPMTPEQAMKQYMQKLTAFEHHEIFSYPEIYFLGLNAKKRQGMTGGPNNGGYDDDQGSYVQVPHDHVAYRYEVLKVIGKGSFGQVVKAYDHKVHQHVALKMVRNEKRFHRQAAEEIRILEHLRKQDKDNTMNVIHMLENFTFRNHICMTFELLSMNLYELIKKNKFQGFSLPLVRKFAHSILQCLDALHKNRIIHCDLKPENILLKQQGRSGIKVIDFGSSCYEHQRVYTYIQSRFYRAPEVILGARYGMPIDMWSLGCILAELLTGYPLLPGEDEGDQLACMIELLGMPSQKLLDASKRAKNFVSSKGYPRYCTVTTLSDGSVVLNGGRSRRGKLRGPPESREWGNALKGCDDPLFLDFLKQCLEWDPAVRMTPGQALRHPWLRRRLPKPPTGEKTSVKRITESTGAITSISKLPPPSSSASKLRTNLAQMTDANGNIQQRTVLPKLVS
# STK22D/TSSK1 = target: T2, STK22D/TSSK1 (Homo sapiens, UniProt Q9BXA7); settings: 1 μM; Run 1, Run 2
# T2 sequence (Q9BXA7 1-367): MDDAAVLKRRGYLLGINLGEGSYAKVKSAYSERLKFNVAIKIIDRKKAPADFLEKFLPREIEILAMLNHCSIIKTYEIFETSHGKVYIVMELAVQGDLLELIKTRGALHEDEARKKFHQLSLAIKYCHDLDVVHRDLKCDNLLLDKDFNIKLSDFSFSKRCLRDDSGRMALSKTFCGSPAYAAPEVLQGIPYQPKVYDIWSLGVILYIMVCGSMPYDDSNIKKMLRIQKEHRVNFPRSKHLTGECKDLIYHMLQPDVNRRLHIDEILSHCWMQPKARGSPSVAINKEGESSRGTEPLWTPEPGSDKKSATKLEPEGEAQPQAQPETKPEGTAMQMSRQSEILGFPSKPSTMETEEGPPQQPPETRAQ
# VRK1 = target: T3, VRK1 (Homo sapiens, UniProt Q99986); settings: 1 μM; Run 1, Run 2
# T3 sequence (Q99986 1-396): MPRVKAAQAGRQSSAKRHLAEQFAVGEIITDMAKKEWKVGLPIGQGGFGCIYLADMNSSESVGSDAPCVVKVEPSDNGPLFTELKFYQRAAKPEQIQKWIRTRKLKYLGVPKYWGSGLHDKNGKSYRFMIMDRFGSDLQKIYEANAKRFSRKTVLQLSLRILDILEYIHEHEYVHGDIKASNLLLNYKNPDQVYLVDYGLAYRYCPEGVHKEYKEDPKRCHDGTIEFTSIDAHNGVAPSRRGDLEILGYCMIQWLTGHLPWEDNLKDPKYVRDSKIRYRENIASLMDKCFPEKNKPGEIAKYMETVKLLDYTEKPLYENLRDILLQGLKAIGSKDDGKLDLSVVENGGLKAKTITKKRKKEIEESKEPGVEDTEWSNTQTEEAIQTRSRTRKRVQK
# DLK/MAP3K12 = target: T4, DLK/MAP3K12 (Homo sapiens, UniProt Q12852); settings: 1 μM; Run 1, Run 2
# T4 sequence (Q12852 1-859): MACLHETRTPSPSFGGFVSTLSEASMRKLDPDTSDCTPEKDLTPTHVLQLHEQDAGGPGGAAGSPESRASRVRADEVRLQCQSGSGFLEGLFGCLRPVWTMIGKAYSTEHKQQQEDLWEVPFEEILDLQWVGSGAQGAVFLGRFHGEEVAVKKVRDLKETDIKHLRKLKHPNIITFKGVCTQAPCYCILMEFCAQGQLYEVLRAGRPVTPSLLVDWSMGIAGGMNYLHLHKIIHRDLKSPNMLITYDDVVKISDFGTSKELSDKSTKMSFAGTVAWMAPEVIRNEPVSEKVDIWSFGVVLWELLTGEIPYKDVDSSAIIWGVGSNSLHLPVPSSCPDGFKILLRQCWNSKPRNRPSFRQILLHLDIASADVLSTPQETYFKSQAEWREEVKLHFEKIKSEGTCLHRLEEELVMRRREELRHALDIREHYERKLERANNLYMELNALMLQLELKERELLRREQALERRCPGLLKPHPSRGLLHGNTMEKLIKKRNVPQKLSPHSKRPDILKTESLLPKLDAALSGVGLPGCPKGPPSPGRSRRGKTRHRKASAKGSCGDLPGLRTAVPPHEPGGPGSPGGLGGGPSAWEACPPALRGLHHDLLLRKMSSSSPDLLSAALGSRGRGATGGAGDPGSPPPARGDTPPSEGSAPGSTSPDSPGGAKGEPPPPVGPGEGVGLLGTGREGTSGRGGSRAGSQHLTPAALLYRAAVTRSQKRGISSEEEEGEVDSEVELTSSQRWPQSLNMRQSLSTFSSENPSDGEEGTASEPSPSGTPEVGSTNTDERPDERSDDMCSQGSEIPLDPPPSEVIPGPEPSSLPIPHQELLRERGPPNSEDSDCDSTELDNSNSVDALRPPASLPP
# MARK3 = MARK3 (Homo sapiens, UniProt P27448); experiment: biochemical; settings: read-out: % enzyme activity, 1 μM; Run 1, Run 2
# ROS/ROS1 = ROS/ROS1 (Homo sapiens, UniProt P08922); settings: 1 μM; Run 1, Run 2
# CK2a2 = CK2a2 (Homo sapiens, UniProt P19784); experiment: biochemical; settings: read-out: % enzyme activity, 1 μM; Run 1, Run 2
# RSK4 = RSK4 (Homo sapiens, UniProt Q9UK32); experiment: biochemical; settings: read-out: % enzyme activity, 1 μM; Run 1, Run 2
# Chain of RSK4 (Q9UK32 whole entry): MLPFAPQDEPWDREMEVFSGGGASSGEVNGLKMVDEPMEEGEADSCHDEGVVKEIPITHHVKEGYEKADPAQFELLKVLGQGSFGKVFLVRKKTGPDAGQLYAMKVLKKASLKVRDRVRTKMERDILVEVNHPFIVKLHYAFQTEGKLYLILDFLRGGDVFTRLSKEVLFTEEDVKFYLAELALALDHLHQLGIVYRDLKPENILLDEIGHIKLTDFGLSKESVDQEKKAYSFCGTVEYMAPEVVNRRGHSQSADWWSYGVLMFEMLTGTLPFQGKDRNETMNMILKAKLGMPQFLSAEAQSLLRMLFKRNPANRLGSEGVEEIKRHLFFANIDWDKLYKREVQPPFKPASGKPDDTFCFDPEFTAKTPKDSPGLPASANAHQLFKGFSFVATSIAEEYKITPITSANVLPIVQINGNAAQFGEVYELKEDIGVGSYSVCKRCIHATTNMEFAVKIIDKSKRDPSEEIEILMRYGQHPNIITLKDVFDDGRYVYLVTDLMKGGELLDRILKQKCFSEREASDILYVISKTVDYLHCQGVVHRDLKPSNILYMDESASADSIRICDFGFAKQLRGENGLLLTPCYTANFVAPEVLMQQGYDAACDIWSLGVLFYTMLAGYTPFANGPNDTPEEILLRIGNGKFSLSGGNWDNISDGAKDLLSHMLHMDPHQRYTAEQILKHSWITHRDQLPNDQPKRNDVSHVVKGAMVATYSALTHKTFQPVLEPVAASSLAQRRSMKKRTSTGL
# Chain of CK2a2 (P19784 whole entry): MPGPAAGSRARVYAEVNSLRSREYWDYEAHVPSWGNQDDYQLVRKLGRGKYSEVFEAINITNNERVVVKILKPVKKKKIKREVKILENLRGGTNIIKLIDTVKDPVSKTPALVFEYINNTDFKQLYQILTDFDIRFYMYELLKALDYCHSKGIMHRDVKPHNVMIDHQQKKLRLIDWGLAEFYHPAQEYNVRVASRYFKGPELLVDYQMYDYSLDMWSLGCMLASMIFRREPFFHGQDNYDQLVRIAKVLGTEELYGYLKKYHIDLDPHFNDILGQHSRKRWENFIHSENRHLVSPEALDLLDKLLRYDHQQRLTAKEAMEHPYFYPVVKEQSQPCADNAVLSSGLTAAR
# Chain of MARK3 (P27448 whole entry): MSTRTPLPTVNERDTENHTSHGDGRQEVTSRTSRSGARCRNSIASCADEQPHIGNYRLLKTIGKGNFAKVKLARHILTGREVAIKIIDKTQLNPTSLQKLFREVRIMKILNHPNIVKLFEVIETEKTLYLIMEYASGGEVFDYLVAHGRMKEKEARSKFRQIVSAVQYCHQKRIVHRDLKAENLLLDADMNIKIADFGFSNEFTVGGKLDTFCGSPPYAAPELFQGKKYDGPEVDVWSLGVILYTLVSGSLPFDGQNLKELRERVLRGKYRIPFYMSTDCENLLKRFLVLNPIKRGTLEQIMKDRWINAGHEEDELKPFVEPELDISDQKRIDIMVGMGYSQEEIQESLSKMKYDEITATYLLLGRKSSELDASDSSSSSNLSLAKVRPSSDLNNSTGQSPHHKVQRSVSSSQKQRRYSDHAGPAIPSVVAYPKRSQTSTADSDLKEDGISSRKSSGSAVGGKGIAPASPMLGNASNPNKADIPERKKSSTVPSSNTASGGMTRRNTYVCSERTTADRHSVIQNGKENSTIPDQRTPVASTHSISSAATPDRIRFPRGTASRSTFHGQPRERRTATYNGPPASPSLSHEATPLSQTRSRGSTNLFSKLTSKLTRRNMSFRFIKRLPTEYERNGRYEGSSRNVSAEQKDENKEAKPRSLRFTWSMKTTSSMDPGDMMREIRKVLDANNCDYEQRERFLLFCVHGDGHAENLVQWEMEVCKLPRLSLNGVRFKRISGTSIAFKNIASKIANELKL
# Chain of ROS/ROS1 (P08922 28-2347): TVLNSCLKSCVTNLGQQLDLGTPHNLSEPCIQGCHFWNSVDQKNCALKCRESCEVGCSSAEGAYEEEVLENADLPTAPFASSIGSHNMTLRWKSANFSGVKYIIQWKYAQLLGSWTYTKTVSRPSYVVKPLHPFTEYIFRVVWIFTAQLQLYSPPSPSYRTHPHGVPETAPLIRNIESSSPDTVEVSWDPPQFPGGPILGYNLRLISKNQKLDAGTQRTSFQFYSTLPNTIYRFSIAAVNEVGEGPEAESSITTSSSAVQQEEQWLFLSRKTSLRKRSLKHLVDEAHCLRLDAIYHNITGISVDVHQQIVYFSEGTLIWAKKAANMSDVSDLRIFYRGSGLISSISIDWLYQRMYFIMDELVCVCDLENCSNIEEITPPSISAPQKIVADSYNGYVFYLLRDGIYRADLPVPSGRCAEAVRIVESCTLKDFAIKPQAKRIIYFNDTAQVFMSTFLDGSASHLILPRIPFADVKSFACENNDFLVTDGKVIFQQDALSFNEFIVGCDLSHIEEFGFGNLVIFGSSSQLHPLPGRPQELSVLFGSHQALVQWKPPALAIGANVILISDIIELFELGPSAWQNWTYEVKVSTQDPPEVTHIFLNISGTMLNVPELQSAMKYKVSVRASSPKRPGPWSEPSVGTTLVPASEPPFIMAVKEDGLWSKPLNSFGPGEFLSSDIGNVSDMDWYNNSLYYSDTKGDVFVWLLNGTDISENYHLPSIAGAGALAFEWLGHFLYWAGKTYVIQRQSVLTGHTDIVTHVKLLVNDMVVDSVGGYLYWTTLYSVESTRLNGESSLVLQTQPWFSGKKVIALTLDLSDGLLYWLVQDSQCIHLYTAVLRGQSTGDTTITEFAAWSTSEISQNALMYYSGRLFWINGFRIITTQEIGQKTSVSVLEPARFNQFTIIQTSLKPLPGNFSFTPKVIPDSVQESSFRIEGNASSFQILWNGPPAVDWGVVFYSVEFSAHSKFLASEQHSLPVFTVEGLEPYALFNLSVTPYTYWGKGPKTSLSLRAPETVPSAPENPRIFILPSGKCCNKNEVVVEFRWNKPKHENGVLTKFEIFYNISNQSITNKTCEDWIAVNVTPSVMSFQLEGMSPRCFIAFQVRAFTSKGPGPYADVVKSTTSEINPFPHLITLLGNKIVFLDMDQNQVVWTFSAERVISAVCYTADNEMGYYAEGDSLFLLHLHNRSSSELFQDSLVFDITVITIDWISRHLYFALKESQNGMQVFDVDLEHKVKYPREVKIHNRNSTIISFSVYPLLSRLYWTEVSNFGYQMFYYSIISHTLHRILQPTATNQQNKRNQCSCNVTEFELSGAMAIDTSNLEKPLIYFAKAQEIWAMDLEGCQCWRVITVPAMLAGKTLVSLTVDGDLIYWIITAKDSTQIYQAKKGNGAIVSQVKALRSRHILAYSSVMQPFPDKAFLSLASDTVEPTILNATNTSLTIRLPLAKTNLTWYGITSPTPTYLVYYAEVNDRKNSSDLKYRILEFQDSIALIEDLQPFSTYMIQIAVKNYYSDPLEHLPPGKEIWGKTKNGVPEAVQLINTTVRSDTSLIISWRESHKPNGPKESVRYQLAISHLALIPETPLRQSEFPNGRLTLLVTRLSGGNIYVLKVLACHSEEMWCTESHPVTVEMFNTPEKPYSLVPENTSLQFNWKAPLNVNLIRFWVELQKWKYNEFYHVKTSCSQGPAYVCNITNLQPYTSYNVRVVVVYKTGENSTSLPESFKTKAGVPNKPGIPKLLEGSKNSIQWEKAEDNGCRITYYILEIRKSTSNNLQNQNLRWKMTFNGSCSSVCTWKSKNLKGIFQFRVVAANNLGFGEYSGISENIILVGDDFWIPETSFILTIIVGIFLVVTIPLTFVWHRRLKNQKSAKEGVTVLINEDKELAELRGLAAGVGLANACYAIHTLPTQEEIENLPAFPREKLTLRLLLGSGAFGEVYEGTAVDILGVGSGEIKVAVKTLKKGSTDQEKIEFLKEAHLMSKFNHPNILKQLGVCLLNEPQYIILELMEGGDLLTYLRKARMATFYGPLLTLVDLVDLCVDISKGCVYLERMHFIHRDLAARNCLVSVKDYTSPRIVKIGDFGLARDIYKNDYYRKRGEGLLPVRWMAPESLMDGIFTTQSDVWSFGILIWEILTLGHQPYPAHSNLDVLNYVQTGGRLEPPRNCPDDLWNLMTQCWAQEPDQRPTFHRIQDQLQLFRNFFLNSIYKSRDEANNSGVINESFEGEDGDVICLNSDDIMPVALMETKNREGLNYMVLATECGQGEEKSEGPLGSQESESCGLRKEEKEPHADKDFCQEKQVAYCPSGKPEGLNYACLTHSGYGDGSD
SMILES,% enzyme activity (DYRK2) [%],% enzyme activity (STK22D/TSSK1) [%],% enzyme activity (VRK1) [%],% enzyme activity (DLK/MAP3K12) [%],remaining activity at 1 µM (MARK3) [%],% enzyme activity (ROS/ROS1) [%],remaining activity at 1 µM (CK2a2) [%],remaining activity at 1 µM (RSK4) [%]
"COc1cc(-c2cncc(-c3ccc(N4C[C@@H](C)N(C)[C@@H](C)C4)cc3)c2C)cc(F)c1C(N)=O [Compound 26c, 2-Fluoro-6-methoxy-4-(4-methyl-5-(4-((3R,5S)-3,4,5-trimethylpiperazin-1-yl)phenyl)pyridin-3-yl)benzamide]",98.44,99.16,98.74,97.93,95,95.54,101,95.5
"COc1cc(-c2cncc(-c3ccc(N4CCN(C)CC4)cc3)c2C)cc(F)c1C(N)=O [Compound 26a, 2-Fluoro-6-methoxy-4-(4-methyl-5-(4-(4-methylpiperazin-1-yl)phenyl)pyridin-3-yl)benzamide]",95.06,97.01,100.69,91.76,83.5,86.47,95.3,96
